Test results as given in BindingDB's records for doi:10.1016/j.bmcl.2006.08.044 (Glaxosmithkline, 2006).
pKi: −log10 of the molar value.

Molecular target: Integrin alpha-4/beta-1 [T112H] (Homo sapiens, UniProt P05556+P13612, T112H)
Experiment: Jurkat J6 Scintillation Proximity Assay
Procedure: J6 cells (1 million cells/well) were allowed to coat wheat germ agglutinin coated SPA beads (Amersham, 1 mg/well) in assay buffer. Tritiated 3H Standard Compound A and test compounds were dissolved in an appropriate solvent and diluted in assay buffer. Data are presented as mean pKi.

Row | Structure (SMILES) | pKi
1 | Cc1ccccc1NC(=O)Nc1ccc(-c2cccn(Cc3ccc([C@H](C)CC(=O)O)cc3)c2=O)c(Cl)c1 [(3R)-3-(4-{[3-(2-chloro-4-{[(2-methylphenyl)carbamoyl]amino}phenyl)-2-oxo-1,2-dihydropyridin-1-yl]methyl}phenyl)butanoic acid] | 9.10
2 | Cc1ccccc1NC(=O)Nc1ccc(-c2cccn(Cc3ccc([C@H](C)CC(=O)O)cc3)c2=O)c(C)c1 [(3R)-3-(4-{[3-(2-methyl-4-{[(2-methylphenyl)carbamoyl]amino}phenyl)-2-oxo-1,2-dihydropyridin-1-yl]methyl}phenyl)butanoic acid] | 8.60
3 | Cc1ccccc1NC(=O)Nc1ccc(-c2cccn(Cc3ccc([C@H](C)CC(=O)O)cc3)c2=O)cc1Cl [(3R)-3-(4-{[3-(3-chloro-4-{[(2-methylphenyl)carbamoyl]amino}phenyl)-2-oxo-1,2-dihydropyridin-1-yl]methyl}phenyl)butanoic acid] | 9.00
4 | CCOc1cc(-c2cccn(Cc3ccc([C@H](C)CC(=O)O)cc3)c2=O)ccc1NC(=O)Nc1ccccc1C [(3R)-3-(4-{[3-(3-ethoxy-4-{[(2-methylphenyl)carbamoyl]amino}phenyl)-2-oxo-1,2-dihydropyridin-1-yl]methyl}phenyl)butanoic acid] | 8.70
5 | CCc1cc(-c2cccn(Cc3ccc([C@H](C)CC(=O)O)cc3)c2=O)ccc1NC(=O)Nc1ccccc1C [(3R)-3-(4-{[3-(3-ethyl-4-{[(2-methylphenyl)carbamoyl]amino}phenyl)-2-oxo-1,2-dihydropyridin-1-yl]methyl}phenyl)butanoic acid] | 8.20
6 | Cc1ccccc1NC(=O)Nc1ccc(-c2cccn(Cc3ccc([C@H](C)CC(=O)O)cc3)c2=O)cc1C [(3R)-3-(4-{[3-(3-methyl-4-{[(2-methylphenyl)carbamoyl]amino}phenyl)-2-oxo-1,2-dihydropyridin-1-yl]methyl}phenyl)butanoic acid] | 9.00
7 | Cc1ccccc1NC(=O)Nc1ccc(-c2cccn(Cc3ccc([C@H](C)CC(=O)O)cc3)c2=O)cc1OC(F)(F)F [(3R)-3-(4-{[3-(4-{[(2-methylphenyl)carbamoyl]amino}-3-(trifluoromethoxy)phenyl)-2-oxo-1,2-dihydropyridin-1-yl]methyl}phenyl)butanoic acid] | 8.40
8 | Cc1ccccc1NC(=O)Nc1ccc(-c2cccn(Cc3ccc([C@@H](C)CC(=O)O)cc3)c2=O)c(Cl)c1 [(3S)-3-(4-{[3-(2-chloro-4-{[(2-methylphenyl)carbamoyl]amino}phenyl)-2-oxo-1,2-dihydropyridin-1-yl]methyl}phenyl)butanoic acid] | 7.60
9 | Cc1ccccc1NC(=O)Nc1ccc(-c2cccn(Cc3ccc([C@@H](C)CC(=O)O)cc3)c2=O)c(C)c1 [(3S)-3-(4-{[3-(2-methyl-4-{[(2-methylphenyl)carbamoyl]amino}phenyl)-2-oxo-1,2-dihydropyridin-1-yl]methyl}phenyl)butanoic acid] | 7.70
10 | Cc1ccccc1NC(=O)Nc1ccc(-c2cccn(Cc3ccc([C@@H](C)CC(=O)O)cc3)c2=O)cc1Cl [(3S)-3-(4-{[3-(3-chloro-4-{[(2-methylphenyl)carbamoyl]amino}phenyl)-2-oxo-1,2-dihydropyridin-1-yl]methyl}phenyl)butanoic acid] | 8.70
11 | CCOc1cc(-c2cccn(Cc3ccc([C@@H](C)CC(=O)O)cc3)c2=O)ccc1NC(=O)Nc1ccccc1C [(3S)-3-(4-{[3-(3-ethoxy-4-{[(2-methylphenyl)carbamoyl]amino}phenyl)-2-oxo-1,2-dihydropyridin-1-yl]methyl}phenyl)butanoic acid] | 8.30
12 | CCc1cc(-c2cccn(Cc3ccc([C@@H](C)CC(=O)O)cc3)c2=O)ccc1NC(=O)Nc1ccccc1C [(3S)-3-(4-{[3-(3-ethyl-4-{[(2-methylphenyl)carbamoyl]amino}phenyl)-2-oxo-1,2-dihydropyridin-1-yl]methyl}phenyl)butanoic acid] | 7.30
13 | Cc1ccccc1NC(=O)Nc1ccc(-c2cccn(Cc3ccc([C@@H](C)CC(=O)O)cc3)c2=O)cc1C [(3S)-3-(4-{[3-(3-methyl-4-{[(2-methylphenyl)carbamoyl]amino}phenyl)-2-oxo-1,2-dihydropyridin-1-yl]methyl}phenyl)butanoic acid] | 8.60
14 | Cc1ccccc1NC(=O)Nc1ccc(-c2cccn(Cc3ccc([C@@H](C)CC(=O)O)cc3)c2=O)cc1OC(F)(F)F [(3S)-3-(4-{[3-(4-{[(2-methylphenyl)carbamoyl]amino}-3-(trifluoromethoxy)phenyl)-2-oxo-1,2-dihydropyridin-1-yl]methyl}phenyl)butanoic acid] | 7.70
